Experimental data reported in publication PMC11173508, “Pharmacokinetics and Tissue Distribution of Itampolin A following Intragastric and Intravenous Administration in Rats Using Ultra-High-Performance Liquid Chromatography–Tandem Mass Spectrometry” (Molecules, 2024).

Experiment: Stability of itampolin A in biological samples under different storage conditions
Assay type: physicochemical, rat
Details: for Stability, Short-Term (at Room Temperature for 4 h) / Stability, Three Freeze–Thaw Cycles / Stability, Autosampler 4 °C for 24 h / Stability, Long-Term (at −80 °C for 30 Days): n = 5, in %
Description: The stability of itampolin A was investigated by analyzing five replicates of the samples at three QC levels (3, 40, and 1280 ng/mL) under different storage conditions: (1) 4 h exposure at room temperature, (2) 24 h storage in the autosampler at 4 °C, (3) three freeze–thaw cycles, and (4) storage at −80 °C for 30 days. The samples were considered stable if the average percentage concentration deviation was within 15% of the actual value.

COc1c(Br)cc(C[C@H](NC(=O)Cc2ccc(OCCCNC(C)=O)cc2)C(=O)NCCc2cc(Br)c(O)c(Br)c2)cc1Br [itampolin A, Itampolin A]
Stability, Short-Term (at Room Temperature for 4 h) (liver, spiked 3 ng/mL): 98.2 ± 7.5 | Stability, Three Freeze–Thaw Cycles (liver, spiked 3 ng/mL): 103.3 ± 4.7 | Stability, Autosampler 4 °C for 24 h (liver, spiked 40 ng/mL): 98.8 ± 4.8 | Stability, Long-Term (at −80 °C for 30 Days) (liver, spiked 40 ng/mL): 87.1 ± 6.8 | Stability, Short-Term (at Room Temperature for 4 h) (liver, spiked 40 ng/mL): 93.5 ± 2.5 | Stability, Three Freeze–Thaw Cycles (liver, spiked 40 ng/mL): 96.4 ± 8.1 | Stability, Autosampler 4 °C for 24 h (liver, spiked 1280 ng/mL): 113.6 ± 4.2 | Stability, Long-Term (at −80 °C for 30 Days) (liver, spiked 1280 ng/mL): 97.9 ± 5.2 | Stability, Short-Term (at Room Temperature for 4 h) (liver, spiked 1280 ng/mL): 102.9 ± 6.5 | Stability, Three Freeze–Thaw Cycles (liver, spiked 1280 ng/mL): 95.1 ± 9.2 | Stability, Autosampler 4 °C for 24 h (lung, spiked 3 ng/mL): 102.5 ± 9.3 | Stability, Long-Term (at −80 °C for 30 Days) (lung, spiked 3 ng/mL): 95.6 ± 4.9 | Stability, Short-Term (at Room Temperature for 4 h) (lung, spiked 3 ng/mL): 108.7 ± 5.1 | Stability, Three Freeze–Thaw Cycles (lung, spiked 3 ng/mL): 95.9 ± 7.2 | Stability, Autosampler 4 °C for 24 h (lung, spiked 40 ng/mL): 99.3 ± 6.9 | Stability, Long-Term (at −80 °C for 30 Days) (lung, spiked 40 ng/mL): 106.7 ± 8.8 | Stability, Short-Term (at Room Temperature for 4 h) (lung, spiked 40 ng/mL): 103.1 ± 3.3 | Stability, Three Freeze–Thaw Cycles (lung, spiked 40 ng/mL): 86.0 ± 4.2 | Stability, Autosampler 4 °C for 24 h (lung, spiked 1280 ng/mL): 98.5 ±3.1 | Stability, Long-Term (at −80 °C for 30 Days) (lung, spiked 1280 ng/mL): 96.4 ± 4.8 | Stability, Short-Term (at Room Temperature for 4 h) (lung, spiked 1280 ng/mL): 101.2 ± 2.9 | Stability, Three Freeze–Thaw Cycles (lung, spiked 1280 ng/mL): 91.4 ± 5.9 | Stability, Autosampler 4 °C for 24 h (plasma, spiked 3 ng/mL): 97.3 ± 5.5 | Stability, Long-Term (at −80 °C for 30 Days) (plasma, spiked 3 ng/mL): 90.5 ± 6.7 | Stability, Short-Term (at Room Temperature for 4 h) (plasma, spiked 3 ng/mL): 103.9 ± 8.0 | Stability, Three Freeze–Thaw Cycles (plasma, spiked 3 ng/mL): 106.8 ± 8.8 | Stability, Autosampler 4 °C for 24 h (plasma, spiked 40 ng/mL): 96.6 ± 6.3 | Stability, Long-Term (at −80 °C for 30 Days) (plasma, spiked 40 ng/mL): 93.6 ± 8.2 | Stability, Short-Term (at Room Temperature for 4 h) (plasma, spiked 40 ng/mL): 100.1 ± 4.1 | Stability, Three Freeze–Thaw Cycles (plasma, spiked 40 ng/mL): 95.3 ± 8.3 | Stability, Autosampler 4 °C for 24 h (plasma, spiked 1280 ng/mL): 98.3 ± 2.9 | Stability, Long-Term (at −80 °C for 30 Days) (plasma, spiked 1280 ng/mL): 95.8 ± 8.4 | Stability, Short-Term (at Room Temperature for 4 h) (plasma, spiked 1280 ng/mL): 97.8 ± 4.1 | Stability, Three Freeze–Thaw Cycles (plasma, spiked 1280 ng/mL): 110.6 ± 5.6 | stability during processing procedures (room temperature for 4 h and autosampler for 24 h, deviation in concentration within ±15% from nominal values): stable | Stability, Autosampler 4 °C for 24 h (spleen, spiked 3 ng/mL): 103.8 ± 8.5 | Stability, Long-Term (at −80 °C for 30 Days) (spleen, spiked 3 ng/mL): 89.5 ± 8.9 | Stability, Short-Term (at Room Temperature for 4 h) (spleen, spiked 3 ng/mL): 96.2 ± 2.2 | Stability, Three Freeze–Thaw Cycles (spleen, spiked 3 ng/mL): 98.4 ± 6.6 | Stability, Autosampler 4 °C for 24 h (spleen, spiked 40 ng/mL): 105.8 ± 3.6 | Stability, Long-Term (at −80 °C for 30 Days) (spleen, spiked 40 ng/mL): 102.9 ± 8.7 | Stability, Short-Term (at Room Temperature for 4 h) (spleen, spiked 40 ng/mL): 100.6 ± 3.8 | Stability, Three Freeze–Thaw Cycles (spleen, spiked 40 ng/mL): 112.2 ± 6.5 | Stability, Autosampler 4 °C for 24 h (spleen, spiked 1280 ng/mL): 101.2 ± 4.2 | Stability, Long-Term (at −80 °C for 30 Days) (spleen, spiked 1280 ng/mL): 104.1 ± 5.2 | Stability, Short-Term (at Room Temperature for 4 h) (spleen, spiked 1280 ng/mL): 98.4 ± 2.1 | Stability, Three Freeze–Thaw Cycles (spleen, spiked 1280 ng/mL): 92.4 ± 7.8 | Stability, Autosampler 4 °C for 24 h (stomach, spiked 3 ng/mL): 87.5 ± 3.3 | Stability, Long-Term (at −80 °C for 30 Days) (stomach, spiked 3 ng/mL): 92.6 ± 6.5 | Stability, Short-Term (at Room Temperature for 4 h) (stomach, spiked 3 ng/mL): 100.6 ± 7.6 | Stability, Three Freeze–Thaw Cycles (stomach, spiked 3 ng/mL): 103.2 ± 4.2 | Stability, Autosampler 4 °C for 24 h (stomach, spiked 40 ng/mL): 104.8 ± 7.8 | Stability, Long-Term (at −80 °C for 30 Days) (stomach, spiked 40 ng/mL): 95.6 ± 5.8 | Stability, Short-Term (at Room Temperature for 4 h) (stomach, spiked 40 ng/mL): 99.0 ± 4.3 | Stability, Three Freeze–Thaw Cycles (stomach, spiked 40 ng/mL): 114.8 ± 6.6 | Stability, Autosampler 4 °C for 24 h (stomach, spiked 1280 ng/mL): 98.5 ± 2.6 | Stability, Long-Term (at −80 °C for 30 Days) (stomach, spiked 1280 ng/mL): 94.1 ± 6.1 | Stability, Short-Term (at Room Temperature for 4 h) (stomach, spiked 1280 ng/mL): 99.1 ± 4.2 | Stability, Three Freeze–Thaw Cycles (stomach, spiked 1280 ng/mL): 97.7 ± 4.7 | effect of storage on quantification (three freeze–thaw cycles and long-term storage (−80 °C for 30 days)): no effect on the quantification
